In patent US10647727B2, “Substituted pyrazolo/imidazolo bicyclic compounds as PDE2 inhibitors” (Merck Sharp & Dohme Corp., priority 2015, dated 2020):
Where two headings read alike, the source gives them in different places.

Columns and labels:
human PDE2A1 = human PDE2A1 (Homo sapiens (Human), UniProt O00408); assay: biochemical; format: biochemical
[1] = reported in Brandon et al. 2007; cited from earlier work
Rhesus PDE2A3 = Rhesus PDE2A3 (Macaca mulatta, UniProt B3VTJ2); assay: PDE2 fluorescence polarization (IMAP FP) inhibition assay, rhesus enzyme; format: biochemical, rhesus macaque
Sequence of Rhesus PDE2A3 (B3VTJ2 1-941): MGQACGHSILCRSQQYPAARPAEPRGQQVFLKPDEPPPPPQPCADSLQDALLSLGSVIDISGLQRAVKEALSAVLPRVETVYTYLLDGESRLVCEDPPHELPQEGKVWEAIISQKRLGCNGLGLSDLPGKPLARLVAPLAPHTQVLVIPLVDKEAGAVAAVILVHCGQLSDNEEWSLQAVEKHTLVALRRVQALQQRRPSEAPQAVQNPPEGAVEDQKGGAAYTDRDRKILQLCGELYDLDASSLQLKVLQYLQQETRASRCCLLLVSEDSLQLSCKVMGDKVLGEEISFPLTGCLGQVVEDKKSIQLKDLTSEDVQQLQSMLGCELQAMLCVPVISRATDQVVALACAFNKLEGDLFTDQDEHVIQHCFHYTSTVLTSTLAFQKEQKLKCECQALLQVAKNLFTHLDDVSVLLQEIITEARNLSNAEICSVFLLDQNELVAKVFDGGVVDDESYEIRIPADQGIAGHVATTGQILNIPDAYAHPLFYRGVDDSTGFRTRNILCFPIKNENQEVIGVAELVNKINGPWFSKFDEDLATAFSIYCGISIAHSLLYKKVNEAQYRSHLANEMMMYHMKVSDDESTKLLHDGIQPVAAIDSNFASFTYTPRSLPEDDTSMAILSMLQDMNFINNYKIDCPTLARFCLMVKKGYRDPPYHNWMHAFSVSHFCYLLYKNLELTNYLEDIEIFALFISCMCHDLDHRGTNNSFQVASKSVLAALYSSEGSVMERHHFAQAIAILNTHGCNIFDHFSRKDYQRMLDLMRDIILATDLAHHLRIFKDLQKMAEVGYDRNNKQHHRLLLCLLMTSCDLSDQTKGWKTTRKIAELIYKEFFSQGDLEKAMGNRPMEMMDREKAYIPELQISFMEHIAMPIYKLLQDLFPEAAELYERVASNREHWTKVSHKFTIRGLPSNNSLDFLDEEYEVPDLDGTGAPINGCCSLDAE

[2] = read-out: Human PDE2 Ki (nM) Lab B
[3] = Lab A, read-out: Rhesus PDE2 Ki (nM) Lab A
[4] = Lab A, read-out: Human PDE2 Ki (nM) Lab A
[5] = Lab B, read-out: Rhesus PDE2 Ki (nM) Lab B
[6] = Lab B, read-out: Human PDE2 Ki (nM) Lab B

Sequence of human PDE2A1 (O00408 other isoform, or with tags, fused parts or gaps): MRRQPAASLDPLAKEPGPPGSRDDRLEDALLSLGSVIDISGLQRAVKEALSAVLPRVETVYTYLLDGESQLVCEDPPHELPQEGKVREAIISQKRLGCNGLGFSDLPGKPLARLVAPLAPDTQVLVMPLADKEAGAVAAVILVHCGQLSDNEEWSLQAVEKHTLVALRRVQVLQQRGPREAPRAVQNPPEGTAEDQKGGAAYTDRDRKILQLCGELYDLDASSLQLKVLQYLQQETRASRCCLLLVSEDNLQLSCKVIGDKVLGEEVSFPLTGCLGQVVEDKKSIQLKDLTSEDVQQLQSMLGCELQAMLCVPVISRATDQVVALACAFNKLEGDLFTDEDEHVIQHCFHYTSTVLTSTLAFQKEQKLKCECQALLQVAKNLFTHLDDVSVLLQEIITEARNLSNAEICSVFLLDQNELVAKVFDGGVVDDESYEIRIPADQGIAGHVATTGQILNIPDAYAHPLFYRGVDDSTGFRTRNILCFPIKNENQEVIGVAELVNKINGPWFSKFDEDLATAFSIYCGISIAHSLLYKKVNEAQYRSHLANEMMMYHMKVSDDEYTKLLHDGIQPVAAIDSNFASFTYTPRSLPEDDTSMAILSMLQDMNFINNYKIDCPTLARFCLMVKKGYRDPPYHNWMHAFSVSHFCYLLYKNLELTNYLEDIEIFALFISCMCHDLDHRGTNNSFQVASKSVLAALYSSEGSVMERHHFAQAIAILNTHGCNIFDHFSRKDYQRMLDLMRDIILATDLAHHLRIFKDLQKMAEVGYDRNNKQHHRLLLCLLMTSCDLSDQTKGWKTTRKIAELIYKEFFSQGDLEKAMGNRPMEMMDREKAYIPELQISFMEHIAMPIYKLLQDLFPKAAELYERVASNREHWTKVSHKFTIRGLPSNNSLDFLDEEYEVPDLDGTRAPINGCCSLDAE

Which Ki (human PDE2A1; [2]) does the source give for `CC(C)(O)C(Nc1nc(C(F)(F)F)cc2nccn12)c1ccc(C(F)(F)F)c(F)c1` (single isomer, unassigned) [Example 33, (R or S)-1-[3-Fluoro-4-(trifluoromethyl)phenyl]-2-methyl-1-{[7-(trifluoromethyl)imidazo[1,2-c]pyrimidin-5-yl]amino}propan-2-ol] here?
The Ki was 1330 nM.

With `CC(C)(O)C(Nc1nc(C(F)(F)F)cc2nccn12)c1ccc(C(F)(F)F)c(F)c1` (single isomer, unassigned) [Example 34, (S or R)-1-[3-Fluoro-4-(trifluoromethyl)phenyl]-2-methyl-1-{[7-(trifluoromethyl)imidazo[1,2-c]pyrimidin-5-yl]amino}propan-2-ol] as the compound, how does the Ki (human PDE2A1; [2]) read?
The Ki was greater than 2960 nM.

Which brain penetration [1] does the source give for `COc1ccc(Cc2nn3c([C@@H](CCCc4ccccc4)[C@@H](C)O)nc(C)c3c(=O)[nH]2)cc1OC` [Bay 60-7550] here?
Its brain penetration is “limited”.

Which Ki (Rhesus PDE2A3; [3]) does the source give for `CC(C)c1ccc(C(C)Nc2nc(Cl)nc3c2cnn3C)cc1` (stereo not shown) [Example 5, 6-Chloro-1-methyl-N-{1-[4-(1-methylethyl)-phenyl]ethyl}-1H-pyrazolo-[3,4-d]pyrimidin-4-amine] here?
The Ki was 401 nM.

With `CCC(Nc1nc(Cl)nc2c1cnn2C)c1ccc(C(C)C)cc1` (stereo not shown) [Example 6, 6-Chloro-1-methyl-N-{1-[4-(1-methylethyl)-phenyl]propyl}-1H-pyrazolo-[3,4-d]pyrimidin-4-amine] as the compound, how does the Ki (Rhesus PDE2A3; [3]) read?
Its Ki is 468 nM.

With `CC(Nc1nc(Cl)nc2c1cnn2C)c1ccc(-n2cccn2)cc1` (stereo not shown) [Example 7, 6-Chloro-1-methyl-N-{1-[4-(1H-pyrazol-1-yl)phenyl]-ethyl}-1H-pyrazolo[3,4-d]-pyrimidin-4-amine] as the compound, how does the Ki (Rhesus PDE2A3; [3]) read?
The Ki was 2650 nM.

With `C[C@H](c1ccc(C(F)(F)F)cc1)N(C)c1nc(Cl)nc2c1cnn2C` [Example 14, 6-Chloro-N,1-dimethyl-N-{(1R)-1-[4-(trifluoromethyl)phenyl]ethyl}-1H-pyrazolo[3,4-d]pyrimidin-4-amine] as the compound, how does the Ki (Rhesus PDE2A3; [3]) read?
The Ki was 137 nM.

What about the Ki (human PDE2A1; [4]) of the same compound?
The Ki was 65 nM.

Which Ki (Rhesus PDE2A3; [3]) does the source give for `CN(Cc1ccc(C(F)(F)F)cc1)c1nc(Cl)nc2c1cnn2C` [Example 15, 6-Chloro-N,1-dimethyl-N-[4-(trifluoromethyl)-benzyl]-1H-pyrazolo-[3,4-d]pyrimidin-4-amine] here?
Its Ki is 997 nM.

Which Ki (Rhesus PDE2A3; [3]) does the source give for `CCN(Cc1ccc(C(F)(F)F)cc1)c1nc(Cl)nc2c1cnn2C` [Example 16, 6-Chloro-N-ethyl-1-methyl-N-[4-(trifluoromethyl)-benzyl]-1H-pyrazolo-[3,4-d]pyrimidin-4-amine] here?
Its Ki is 866 nM.

What about the Ki (human PDE2A1; [4]) of the same compound?
Its Ki is 429 nM.

With `CN(c1nc(Cl)nc2c1cnn2C)C1(c2ccc(C(F)(F)F)cc2)CC1` [Example 17, 6-Chloro-N,1-dimethyl-N-{1-[4-(trifluoromethyl)phenyl]cyclopropyl}-1H-pyrazolo[3,4-d]pyrimidin-4-amine] as the compound, how does the Ki (Rhesus PDE2A3; [3]) read?
The Ki was 1.5 nM.

What about the Ki (Rhesus PDE2A3; [5]) of the same compound?
The Ki was 6 nM.

And the Ki (human PDE2A1; [6])?
Its Ki is 3.8 nM.

For `CC(Nc1nc(Cl)nc2c1cnn2C(C)C)c1ccc(C(F)(F)F)cc1` (stereo not shown) [Example 18, 6-Chloro-1-(1-methylethyl)-N-{1-[4-(trifluoromethyl)phenyl]ethyl}-1H-pyrazolo[3,4-d]pyrimidin-4-amine], which Ki (Rhesus PDE2A3; [3]) is on record?
The Ki was 1970 nM.

With `Cn1ncc2c(NC3(c4ccc(C(F)(F)F)cc4)CC3)nc(C(F)(F)F)nc21` [Example 19, 1-Methyl-6-(trifluoromethyl)-N-(1-(4-(trifluoromethyl)phenyl)cyclopropyl)-1H-pyrazolo[3,4-d]pyrimidin-4-amine] as the compound, how does the Ki (Rhesus PDE2A3; [5]) read?
The Ki was 80 nM.

What about the Ki (human PDE2A1; [6]) of the same compound?
Its Ki is 67 nM.

Which Ki (Rhesus PDE2A3; [3]) does the source give for `Cc1nc(N[C@H](C)c2ccc(C(F)(F)F)cc2)c2cnn(C)c2n1` [Example 21, 1,6-Dimethyl-N-{(1R)-1-[4-(trifluoromethyl)-phenyl]ethyl}-1H-pyrazolo[3,4-d]-pyrimidin-4-amine] here?
The Ki was 194 nM.

What about the Ki (human PDE2A1; [4]) of the same compound?
Its Ki is 140 nM.

For `Cc1nc(NC2(c3ccc(OC(F)(F)F)c(F)c3)CC2)c2cnn(C)c2n1` [Example 22], which Ki (Rhesus PDE2A3; [5]) is on record?
Its Ki is 55 nM.

And the Ki (human PDE2A1; [6])?
Its Ki is 35 nM.

For `Cc1nc(NC2(c3ccc(SC(F)(F)F)cc3)CC2)c2cnn(C)c2n1` [Example 23, 1,6-Dimethyl-N-(1-{4-[(trifluoromethyl)-sulfanyl]phenyl}-cyclopropyl)-1H-pyrazolo[3,4-d]-pyrimidin-4-amine], which Ki (Rhesus PDE2A3; [5]) is on record?
The Ki was 20 nM.

What about the Ki (human PDE2A1; [6]) of the same compound?
The Ki was 16 nM.

Which Ki (human PDE2A1; [6]) does the source give for `Cc1nc(NC2(c3ccc(C(F)(F)F)cc3F)CC2)c2cnn(C)c2n1` [Example 24, N-{1-[2-Fluoro-4-(trifluoromethyl)-phenyl]cyclo-propyl}-1,6-dimethyl-1H-pyrazolo[3,4-d]-pyrimidin-4-amine] here?
Its Ki is 29 nM.

With `Cc1nc(NC2(c3ccc(C(F)(F)F)cc3)CCC2)c2cnn(C)c2n1` [Example 25, 1,6-Dimethyl-N-{1-[4-(trifluoro-methyl)phenyl]-cyclobutyl}-1H-pyrazolo[3,4-d]-pyrimidin-4-amine] as the compound, how does the Ki (Rhesus PDE2A3; [5]) read?
The Ki was 358 nM.

And the Ki (human PDE2A1; [6])?
The Ki was 430 nM.

With `Cc1nc(N(C)C2(c3ccc(C(F)(F)F)cc3)CC2)c2cnn(C)c2n1` [Example 26, N,1,6-Trimethyl-N-{1-[4-(trifluoromethyl)phenyl]cyclopropyl}-1H-pyrazolo[3,4-d]pyrimidin-4-amine] as the compound, how does the Ki (human PDE2A1; [6]) read?
The Ki was 4.9 nM.

For `Cc1nc(NC2(c3ccc(C(F)(F)F)c(F)c3)CC2)c2cnn(CC(F)(F)F)c2n1` [Example 28, N-{1-[3-Fluoro-4-(trifluoromethyl)phenyl]cyclopropyl}-6-methyl-1-(2,2,2-trifluoroethyl)-1H-pyrazolo[3,4-d]pyrimidin-4-amine], which Ki (Rhesus PDE2A3; [5]) is on record?
Its Ki is 98 nM.

What about the Ki (human PDE2A1; [6]) of the same compound?
The Ki was 76 nM.

For `Cn1ncc2c(NC3(c4ccc(C(F)(F)F)cc4)CC3)nc(C#N)nc21` [Example 29, 1-Methyl-4-{1-[4-(trifluoromethyl)phenyl]cyclopropylamino}-1H-pyrazolo[3,4-d]pyrimidine-6-carbonitrile], which Ki (Rhesus PDE2A3; [5]) is on record?
Its Ki is 47 nM.

What about the Ki (human PDE2A1; [6]) of the same compound?
The Ki was 39 nM.

For `Cc1nc(OC2(c3ccc(C(F)(F)F)cc3)CC2)c2cnn(C)c2n1` [Example 30, 1,6-Dimethyl-4-({1-[4-(trifluoromethyl)phenyl]cyclopropyl}oxy)-1H-pyrazolo[3,4-d]pyrimidine], which Ki (human PDE2A1; [6]) is on record?
Its Ki is 32 nM.

Which Ki (human PDE2A1; [2]) does the source give for `Cc1cc(NC2(c3ccc(C(F)(F)F)c(F)c3)CC2)n2ccnc2n1` [Example 31, N-(1-(3-Fluoro-4-(trifluoromethyl)phenyl)cyclopropyl)-7-methylimidazo[1,2-a]pyrimidin-5-amine] here?
Its Ki is 55 nM.

Which Ki (human PDE2A1; [6]) does the source give for `Cc1cc(N[C@@H](c2ccc(C(F)(F)F)c(F)c2)C(C)(C)C)n2ccnc2n1` [Example 32, (R)—N-(1-(3-Fluoro-4-(trifluoromethyl)phenyl)-2,2-dimethylpropyl)-7-methylimidazo[1,2-a]pyrimidin-5-amine] here?
The Ki was 51 nM.

Which Ki (human PDE2A1; [6]) does the source give for `Cc1nc(N[C@@H](c2ccc(C(F)(F)F)c(F)c2)C(C)(C)C)c2nc[nH]c2n1` [Example 35] here?
Its Ki is 566 nM.

With `Cc1nc(NC2(c3ccc(C(F)(F)F)c(F)c3)CC2)c2nc[nH]c2n1` [Example 36, N-{1-[3-Fluoro-4-(trifluoromethyl)phenyl]cyclopropyl}-2-methyl-9H-purin-6-amine] as the compound, how does the Ki (human PDE2A1; [6]) read?
The Ki was 206 nM.

Which Ki (human PDE2A1; [6]) does the source give for `Cc1nc(NC2(c3ccc(C(F)(F)F)c(F)c3)CC2)c2ncn(C)c2n1` [Example 37, N-(1-(3-Fluoro-4-(trifluoromethyl)phenyl)cyclopropyl)-2,9-dimethyl-9H-purin-6-amine] here?
The Ki was 115 nM.

For `Cc1cc(NC2(c3ccc(C(F)(F)F)c(F)c3)CC2)n2ncc(C#N)c2n1` [Example 39, 7-((1-(3-Fluoro-4-(trifluoromethyl)phenyl)cyclopropyl)amino)-5-methylpyrazolo[1,5-a]pyrimidine-3-carbonitrile], which Ki (human PDE2A1; [6]) is on record?
The Ki was 503 nM.

Which Ki (human PDE2A1; [6]) does the source give for `Cc1cc(N[C@@H](c2ccc(C(F)(F)F)c(F)c2)C(C)(C)C)n2ncc(C#N)c2n1` [Example 40, 7-({(1R)-1-[3-Fluoro-4-(trifluoromethyl)phenyl]-2,2-dimethylpropyl}amino)-5-methylpyrazolo[1,5-a]pyrimidine-3-carbonitrile] here?
Its Ki is 462 nM.

Which Ki (human PDE2A1; [6]) does the source give for `Cc1cc(NC2(c3ccc(C(F)(F)F)c(F)c3)CC2)n2ncc(N)c2n1` [Example 41, N^7-{1-[3-Fluoro-4-(trifluoromethyl)phenyl]cyclopropyl}-5-methylpyrazolo[1,5-a]pyrimidine-3,7-diamine] here?
Its Ki is 337 nM.

With `Cc1cc(N[C@@H](c2ccc(C(F)(F)F)c(F)c2)C(C)(C)C)n2ncc(N)c2n1` [Example 42, N^7-{(1R)-1-[3-Fluoro-4-(trifluoromethyl)phenyl]-2,2-dimethylpropyl}-5-methylpyrazolo[1,5-a]pyrimidine-3,7-diamine] as the compound, how does the Ki (human PDE2A1; [6]) read?
Its Ki is 580 nM.

With `Cc1cc(NC2(c3ccc(C(F)(F)F)c(F)c3)CC2)n2nc(CO)cc2n1` [Example 43, [7-({1-[3-Fluoro-4-(trifluoromethyl)phenyl]cyclopropyl}amino)-5-methylpyrazolo[1,5-a]pyrimidin-2-yl]methanol] as the compound, how does the Ki (human PDE2A1; [6]) read?
The Ki was 169 nM.

With `Cc1cc(NC2(c3ccc(C(F)(F)F)c(F)c3)CC2)n2ncc(CO)c2n1` [Example 45, [7-({1-[3-Fluoro-4-(trifluoromethyl)phenyl]cyclopropyl}amino)-5-methylpyrazolo[1,5-a]pyrimidin-3-yl]methanol] as the compound, how does the Ki (human PDE2A1; [6]) read?
The Ki was 682 nM.

For `Cc1cc(N[C@@H](c2ccc(C(F)(F)F)c(F)c2)C(C)(C)C)n2ncc(CO)c2n1` [Example 46], which Ki (human PDE2A1; [6]) is on record?
Its Ki is roughly 2640 nM.

With `Cc1cc(NC2(c3ccc(C(F)(F)F)c(F)c3)CC2)n2nccc2n1` [Example 47, N-{1-[3-Fluoro-4-(trifluoromethyl)phenyl]cyclopropyl}-5-methylpyrazolo[1,5-a]pyrimidin-7-amine] as the compound, how does the Ki (human PDE2A1; [6]) read?
The Ki was 199 nM.

Which Ki (human PDE2A1; [6]) does the source give for `Cc1cc(N[C@@H](c2ccc(C(F)(F)F)c(F)c2)C(C)(C)C)n2nccc2n1` [Example 48, N-{(1R)-1-[3-Fluoro-4-(trifluoromethyl)phenyl]-2,2-dimethylpropyl}-5-methylpyrazolo[1,5-a]pyrimidin-7-amine] here?
Its Ki is 174 nM.
